The species named for one experiment is Homo sapiens. Nature of the experiment: Selectivity ratio of RBA for ERbeta (unknown origin) to RBA for ERalpha (unknown origin).
Experiment [1] has as its target Estrogen receptor beta (Homo sapiens) (UniProt Q92731). Nature of the experiment: Binding affinity to ERbeta (unknown origin) relative to estradiol.

Chain of Estrogen receptor beta (Homo sapiens) (Q92731 whole entry): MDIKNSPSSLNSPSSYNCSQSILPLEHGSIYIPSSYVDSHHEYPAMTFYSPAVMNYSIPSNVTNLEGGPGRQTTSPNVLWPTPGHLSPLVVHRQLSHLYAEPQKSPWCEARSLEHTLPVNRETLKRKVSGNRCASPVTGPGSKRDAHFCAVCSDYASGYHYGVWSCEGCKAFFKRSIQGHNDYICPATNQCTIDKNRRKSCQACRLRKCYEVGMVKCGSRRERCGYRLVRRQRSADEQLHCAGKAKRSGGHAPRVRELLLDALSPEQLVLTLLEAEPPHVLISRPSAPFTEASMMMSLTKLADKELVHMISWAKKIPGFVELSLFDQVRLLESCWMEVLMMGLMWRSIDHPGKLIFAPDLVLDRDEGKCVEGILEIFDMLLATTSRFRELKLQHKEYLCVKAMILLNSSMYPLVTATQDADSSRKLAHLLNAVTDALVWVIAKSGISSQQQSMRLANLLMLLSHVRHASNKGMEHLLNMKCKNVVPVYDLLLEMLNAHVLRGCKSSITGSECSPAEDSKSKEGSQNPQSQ

In the case of `Cc1cc(O)ccc1[C@H]1CC[C@@]2(C)[C@H](CC[C@@H]2O)C1`, in the experiment filed under Homo sapiens, the Selectivity ratio was found to be 11.9. Also, the relative binding affinity (RBA) in experiment [1] was 33.6.

Regarding `C[C@]12CC=C(c3ccc(O)c(Cl)c3Cl)C[C@H]1CC[C@@H]2O`, the Selectivity ratio in the experiment filed under Homo sapiens was 18.3. In experiment [1], this compound showed a relative binding affinity (RBA) of 55.

Consider `C[C@]12CC[C@H](c3cc(F)c(O)c(F)c3F)C[C@H]1CC[C@@H]2O`, for which, in the experiment filed under Homo sapiens, the Selectivity ratio worked out at 9.3. This compound also registered a relative binding affinity (RBA) in experiment [1] of 1.73.

With `Cc1cc(O)ccc1[C@H]1CC[C@@]2(C)[C@@H](CC[C@@H]2O)C1`, the Selectivity ratio in the experiment listed under Homo sapiens turned out to be 2.8. Also, in experiment [1], the relative binding affinity (RBA) was found to be 1.3.

Regarding `C[C@]12CC=C(c3ccc(O)cc3F)C[C@@H]1CC[C@@H]2O`, the Selectivity ratio in the experiment listed under Homo sapiens was determined as 1.7. This compound also returned a relative binding affinity (RBA) in experiment [1] of 38.

Turning to `C[C@]12CC=C(c3ccc(O)cc3C(F)(F)F)C[C@H]1CC[C@@H]2O`, the Selectivity ratio in the experiment filed under Homo sapiens was determined as 1.4. In addition, the relative binding affinity (RBA) in experiment [1] was 174.

In the case of `C[C@]12CC=C(c3cc(F)c(O)c(F)c3Cl)C[C@H]1CC[C@@H]2O`, in the experiment listed under Homo sapiens, the Selectivity ratio came out at 1.8. Moreover, in experiment [1], the relative binding affinity (RBA) came out at 6.

As for `C[C@]12CC=C(c3cc(F)c(O)c(F)c3F)C[C@@H]1CC[C@@H]2O`, in the experiment listed under Homo sapiens, the Selectivity ratio is 0.8. The relative binding affinity (RBA) in experiment [1] turned out to be 0.076.

`C[C@]12CC[C@H](c3ccc(O)c(F)c3F)C[C@H]1CC[C@@H]2O`: the Selectivity ratio in the experiment listed under Homo sapiens amounted to 9.3. In addition, the relative binding affinity (RBA) in experiment [1] worked out at 42.8.

Turning to `COc1cc(O)ccc1C1=CC[C@@]2(C)[C@H](CC[C@@H]2O)C1`, the Selectivity ratio in the experiment listed under Homo sapiens is 5.5. In experiment [1], the relative binding affinity (RBA) was found to be 0.022.

Turning to `C[C@]12CC[C@H](c3ccc(O)cc3)C[C@@H]1CC[C@@H]2O`, the Selectivity ratio in the experiment listed under Homo sapiens worked out at 4.2. In experiment [1], this compound gave a relative binding affinity (RBA) of 10.

With `C[C@]12CC=C(c3ccc(O)cc3)C[C@H]1CC[C@@H]2O`, in the experiment listed under Homo sapiens, the Selectivity ratio was 17. This compound gave a relative binding affinity (RBA) in experiment [1] of 6.8.

For the compound `C[C@]12CC[C@H](c3ccc(O)cc3O)C[C@H]1CC[C@@H]2O`, the Selectivity ratio in the experiment filed under Homo sapiens was found to be 15.3. In addition, the relative binding affinity (RBA) in experiment [1] was determined as 3.97.

On to `C[C@]12CC[C@H](c3ccc(O)cc3F)C[C@@H]1CC[C@@H]2O`, for which the Selectivity ratio in the experiment listed under Homo sapiens was 3.2. The same compound came in with a relative binding affinity (RBA) in experiment [1] of 13.6.

With `C[C@]12CC[C@H](c3ccc(O)cc3)C[C@H]1CC[C@@H]2O`, the Selectivity ratio in the experiment filed under Homo sapiens was 14.6. Further, in experiment [1], the relative binding affinity (RBA) came out at 21.5.

`C[C@]12CC=C(c3ccc(O)cc3)C[C@@H]1CC[C@@H]2O`: the Selectivity ratio in the experiment listed under Homo sapiens was 4.7. The compound also showed a relative binding affinity (RBA) in experiment [1] of 17.3.

As for `C[C@]12CC[C@H](c3ccc(O)c(F)c3F)C[C@@H]1CC[C@@H]2O`, the Selectivity ratio in the experiment listed under Homo sapiens was found to be 7.9. The compound further registered a relative binding affinity (RBA) in experiment [1] of 7.3.

As to `C[C@]12CC=C(c3ccc(O)cc3F)C[C@H]1CC[C@@H]2O`, in the experiment filed under Homo sapiens, the Selectivity ratio was determined as 11. Moreover, the relative binding affinity (RBA) in experiment [1] was found to be 49.

With `COc1cc(O)ccc1[C@H]1CC[C@@]2(C)[C@@H](CC[C@@H]2O)C1`, in the experiment listed under Homo sapiens, the Selectivity ratio came out at 3.7. This compound returned a relative binding affinity (RBA) in experiment [1] of 0.037.

As for `Cc1c([C@H]2CC[C@@]3(C)[C@H](CC[C@@H]3O)C2)cc(F)c(O)c1F`, the Selectivity ratio in the experiment filed under Homo sapiens was found to be 7.1. The compound also had a relative binding affinity (RBA) in experiment [1] of 5.35.

Take `C[C@]12CC[C@H](c3cc(F)c(O)c(F)c3F)C[C@@H]1CC[C@@H]2O`: the Selectivity ratio in the experiment filed under Homo sapiens was 3.3. In experiment [1], this compound yielded a relative binding affinity (RBA) of 0.097.

Regarding `COc1cc(O)ccc1C1=CC[C@@]2(C)[C@@H](CC[C@@H]2O)C1`, the Selectivity ratio in the experiment filed under Homo sapiens came to 4.8. The relative binding affinity (RBA) in experiment [1] was found to be 0.029.

In the case of `C[C@]12CC[C@H](c3ccc(O)cc3C(F)(F)F)C[C@@H]1CC[C@@H]2O`, the Selectivity ratio in the experiment listed under Homo sapiens came to 1. Besides, the relative binding affinity (RBA) in experiment [1] worked out at 4.9.

`COc1cc(O)ccc1[C@H]1CC[C@@]2(C)[C@H](CC[C@@H]2O)C1`: the Selectivity ratio in the experiment listed under Homo sapiens amounted to 7.7. Moreover, the relative binding affinity (RBA) in experiment [1] turned out to be 0.123.

Take `C[C@]12CC[C@H](c3ccc(O)cc3O)C[C@@H]1CC[C@@H]2O`: the Selectivity ratio in the experiment listed under Homo sapiens was determined as 4.1. This compound came in with a relative binding affinity (RBA) in experiment [1] of 0.15.

On to `C[C@]12CC=C(c3cc(F)c(O)cc3F)C[C@H]1CC[C@@H]2O`, for which, in the experiment listed under Homo sapiens, the Selectivity ratio worked out at 6.1. For the same compound, in experiment [1], the relative binding affinity (RBA) is 2.7.

For the compound `Cc1c([C@H]2CC[C@@]3(C)[C@@H](CC[C@@H]3O)C2)cc(F)c(O)c1F`, in the experiment filed under Homo sapiens, the Selectivity ratio came to 2.8. In addition, in experiment [1], the relative binding affinity (RBA) amounted to 0.226.

On to `C[C@]12CC[C@H](c3ccc(O)c(F)c3)C[C@H]1CC[C@@H]2O`, for which, in the experiment filed under Homo sapiens, the Selectivity ratio stood at 8.4. Moreover, the relative binding affinity (RBA) in experiment [1] is 8.7.

On to `C[C@]12CC[C@H](c3ccc(O)c(F)c3)C[C@@H]1CC[C@@H]2O`, for which the Selectivity ratio in the experiment filed under Homo sapiens came to 4.1. The same compound showed a relative binding affinity (RBA) in experiment [1] of 6.84.

For `C[C@]12CC=C(c3ccc(O)cc3Cl)C[C@@H]1CC[C@@H]2O`, the Selectivity ratio in the experiment listed under Homo sapiens was found to be 1.5. Also, the relative binding affinity (RBA) in experiment [1] came out at 14.1.

On to `C[C@]12CC=C(c3ccc(O)c(F)c3Cl)C[C@H]1CC[C@@H]2O`, for which the Selectivity ratio in the experiment listed under Homo sapiens is 3. Besides, the relative binding affinity (RBA) in experiment [1] amounted to 149.

Take `C[C@]12CC[C@H](c3ccc(O)cc3F)C[C@H]1CC[C@@H]2O`: the Selectivity ratio in the experiment filed under Homo sapiens was 5. Moreover, the relative binding affinity (RBA) in experiment [1] came to 136.

Take `C[C@]12CC=C(c3ccc(O)cc3Cl)C[C@H]1CC[C@@H]2O`: the Selectivity ratio in the experiment filed under Homo sapiens came to 2. In experiment [1], this compound yielded a relative binding affinity (RBA) of 118.

The values above are taken from ChEMBL document CHEMBL3352468, “Synthesis and receptor binding in trans-CD ring-fused A-CD estrogens: comparison with the cis-fused isomers” (Bioorg Med Chem Lett, 2014).
